Series [1] concerns the target T1, Sodium/glucose cotransporter 1 (Homo sapiens, UniProt P13866).
T1 sequence (P13866 whole entry): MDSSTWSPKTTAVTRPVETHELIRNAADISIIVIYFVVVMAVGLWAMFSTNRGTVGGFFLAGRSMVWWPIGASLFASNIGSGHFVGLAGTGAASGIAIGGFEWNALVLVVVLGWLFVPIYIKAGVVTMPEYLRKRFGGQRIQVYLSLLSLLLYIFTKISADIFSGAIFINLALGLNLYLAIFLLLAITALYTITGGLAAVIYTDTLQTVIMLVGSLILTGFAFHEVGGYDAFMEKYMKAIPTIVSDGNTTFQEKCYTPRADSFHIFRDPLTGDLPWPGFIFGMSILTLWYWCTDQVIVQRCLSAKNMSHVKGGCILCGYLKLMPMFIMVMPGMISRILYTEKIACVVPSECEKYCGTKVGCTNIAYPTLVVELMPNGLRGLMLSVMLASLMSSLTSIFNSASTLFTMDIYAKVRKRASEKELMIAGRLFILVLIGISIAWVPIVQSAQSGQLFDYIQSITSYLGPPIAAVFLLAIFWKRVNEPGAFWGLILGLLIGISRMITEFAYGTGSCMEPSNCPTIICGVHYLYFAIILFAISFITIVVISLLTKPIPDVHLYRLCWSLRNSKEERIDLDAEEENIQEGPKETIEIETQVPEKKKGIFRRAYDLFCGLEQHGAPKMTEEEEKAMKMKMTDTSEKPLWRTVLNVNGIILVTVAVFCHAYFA
Description: Inhibition of human SGLT1 expressed in CHOK1 cells assessed as reduction in Na-dependent [14C]-methyl-alpha-D-glucopyranoside uptake after 30 mins by microbeta counting method. Format: cell-based.

Series [2] deals with T2, Sodium/glucose cotransporter 2 (Homo sapiens, UniProt P31639).
T2 sequence (P31639 whole entry): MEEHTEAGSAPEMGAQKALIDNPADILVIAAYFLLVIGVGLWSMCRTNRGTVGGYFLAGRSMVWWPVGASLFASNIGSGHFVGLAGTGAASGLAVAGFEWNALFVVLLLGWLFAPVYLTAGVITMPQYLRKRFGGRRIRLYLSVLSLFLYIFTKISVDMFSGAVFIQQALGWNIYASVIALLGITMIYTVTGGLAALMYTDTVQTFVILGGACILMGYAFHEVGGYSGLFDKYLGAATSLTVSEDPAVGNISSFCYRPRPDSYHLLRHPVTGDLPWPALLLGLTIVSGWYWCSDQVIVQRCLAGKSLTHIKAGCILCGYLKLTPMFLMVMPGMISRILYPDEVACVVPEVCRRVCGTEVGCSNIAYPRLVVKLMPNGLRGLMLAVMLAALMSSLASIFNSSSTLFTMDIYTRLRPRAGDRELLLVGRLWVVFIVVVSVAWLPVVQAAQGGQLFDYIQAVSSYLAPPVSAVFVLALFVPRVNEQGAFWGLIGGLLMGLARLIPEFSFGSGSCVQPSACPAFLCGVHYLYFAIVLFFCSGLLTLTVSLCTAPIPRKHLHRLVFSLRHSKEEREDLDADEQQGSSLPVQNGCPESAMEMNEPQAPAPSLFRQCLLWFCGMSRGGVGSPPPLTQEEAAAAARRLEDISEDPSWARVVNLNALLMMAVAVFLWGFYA
Description: Inhibition of human SGLT2 expressed in CHOK1 cells assessed as reduction in Na-dependent [14C]-methyl-alpha-D-glucopyranoside uptake after 1 hr by microbeta counting method. Format: cell-based.

A short description of series [3]: Terminal half life in Sprague-Dawley rat at 2 mg/kg, iv administered as single dose by LC-MS analysis. The class given is ADME, organism-based. The note with it: in vivo, read-out: beta t1/2 (converted).
Series [4] in a line: Oral bioavailability in Sprague-Dawley rat at 1 mg/kg administered as single dose by LC-MS analysis. The class given is ADME, organism-based. The settings on record: in vivo.
A short description of series [5]: Total clearance in Sprague-Dawley rat at 2 mg/kg, iv administered as single dose by LC-MS analysis. Format: ADME, organism-based. The note with it: in vivo.
Series [6] can be described thus: Tmax in Sprague-Dawley rat at 1 mg/kg, po administered as single dose by LC-MS analysis. Format: ADME, organism-based. The note with it: in vivo.
Series [7] is described as follows: Cmax in Sprague-Dawley rat at 1 mg/kg, po administered as single dose by LC-MS analysis. Format: ADME, organism-based. On the set-up: dose 1 mg/kg, route oral. The note with it: in vivo.
Series [8] deals with Rattus norvegicus. Description: Hypoglycemic effect in Sprague-Dawley rat assessed as reduction in blood glucose AUC (0 to 2 hrs) at 1 mg/kg, po pretreated followed by glucose challenge by OGTT relative to control. Format: functional. Set-up: scale not given: the % may be the effect or the level left.
Series [9] has as its system Rattus norvegicus. Description: In vivo inhibition of SGLT2 Sprague-Dawley rat assessed as increase in urinary glucose excretion at 0.1 to 0.3 mg/kg, po bid for 4 days followed by glucose challenge on day 5. The class given is functional, organism-based.
The test system of series [10] is Rattus norvegicus. Description: Hypoglycemic effect in Sprague-Dawley rat assessed as reduction in blood glucose AUC (0 to 2 hrs) at 0.3 mg/kg, po pretreated followed by glucose challenge by OGTT relative to control. The class given is functional. Set-up: scale not given: the % may be the effect or the level left.
The nature of series [11]: Volume of distribution at steady state in Sprague-Dawley rat at 2 mg/kg, iv administered as single dose by LC-MS analysis. The class given is ADME, organism-based. The settings on record: in vivo, read-out: Vdss.
Series [12] concerns Rattus norvegicus. Description: Hypoglycemic effect in Sprague-Dawley rat assessed as reduction in blood glucose AUC (0 to 2 hrs) pretreated orally followed by glucose challenge by OGTT. The class given is functional, organism-based.
Series [13] deals with Rattus norvegicus. Description: Hypoglycemic effect in Sprague-Dawley rat assessed as reduction in blood glucose AUC (0 to 2 hrs) at 0.1 mg/kg, po pretreated followed by glucose challenge by OGTT relative to control. The class given is functional. Set-up: scale not given: the % may be the effect or the level left.
The nature of series [14]: Permeability of the compound at 50 uM after 24 hrs at pH 7.4 by PAMPA. Format: ADME. The settings on record: read-out: permeability.

One may read the IC50 as the concentration at which inhibition is half-maximal. For orientation: bioavailability means the share of a dose that reaches the circulation, judged against a reference dose that is usually intravenous. One may read the clearance as the rate of elimination divided by the concentration. A word on the Tmax: it is the time from dosing to the highest level. The Cmax is the peak of the concentration-time curve.

Active and inactive are the calls of the source. The calls are words filed in the database; no cut-off is given here.

On to `COc1ccc(Cc2cc([C@@H]3S[C@H](CO)[C@@H](O)[C@H](O)[C@H]3O)c(O)cc2C)cc1`, for which, in [1], the IC50 worked out at 65 nM.

As to `Cc1ccc(Cc2cc([C@@H]3S[C@H](CO)[C@@H](O)[C@H](O)[C@H]3O)c(O)cc2C)cc1`, the half-maximal inhibitory concentration (IC50) in [2] came to 2 nM; in series [1], 25 nM.

For `Cc1cc(O)c([C@@H]2O[C@H](CO)[C@@H](O)[C@H](O)[C@H]2O)cc1Cc1ccc(CCCC(=O)NC(CO)(CO)CO)cc1`, in series [1], the IC50 is 35 nM.

Regarding `Cc1cc(O)c([C@@H]2O[C@H](CO)[C@@H](O)[C@H](O)[C@H]2O)cc1Cc1ccc(CCCC(=O)NC(C)(CO)CO)cc1`, in series [1], the IC50 worked out at 32 nM.

On to `Cc1cc(O)c([C@@H]2O[C@H](CO)[C@@H](O)[C@H](O)[C@H]2O)cc1Cc1ccc(CCCNC(=O)N2CCN(C)CC2)cc1`, for which the half-maximal inhibitory concentration (IC50) was 5 nM in [2] and 764 nM in series [1].

`Cc1cc(O)c([C@@H]2O[C@H](CO)[C@@H](O)[C@H](O)[C@H]2O)cc1Cc1ccc(CCNC(=O)NC(CO)(CO)CO)cc1`: in series [3], the half-life was 21.7 min. Besides, the bioavailability in [4] is 0.05%. Besides, the clearance in series [5] is 18 mL/min/kg. For the same molecule, the Tmax in [6] is 15 min. In series [7], this molecule registered a Cmax of 1.46 ng/mL. Also, the IC50 turned out to be 7 nM in series [2] and 28 nM in series [1]. Further, the Activity in series [8] was 62.2%; in series [10] it was 58.5%; in series [12], “Dose-dependent effect”; in series [13], 31.5%. For the same molecule, in series [9], the inhibition entry is “inactive”. In addition, the Vd in [11] was 0.439 L/kg. Further, the Papp at 24 h, 50 µM in series [14] is 0.3 ×10⁻⁶ cm/s.

On to `CCOc1ccc(Cc2cc([C@@H]3S[C@H](CO)[C@@H](O)[C@H](O)[C@H]3O)c(O)cc2C)cc1`, for which the values for the 50% inhibitory concentration (IC50) in [2] and in series [1] were 3 nM and 162 nM, respectively.

For `Cc1cc(O)c([C@@H]2O[C@H](CO)[C@@H](O)[C@H](O)[C@H]2O)cc1Cc1ccc(CCCNC(=O)NC(C)(C)CO)cc1`, the half-maximal inhibitory concentration (IC50) in series [2] came out at 5 nM.

As for `Cc1cc(O)c([C@@H]2S[C@H](CO)[C@@H](O)[C@H](O)[C@H]2O)cc1Cc1ccc(CCCC(=O)NC(C)(CO)CO)cc1`, the figures for the IC50 in series [2] and in series [1] were 5 nM and 22 nM, respectively.

Take `Cc1cc(O)c([C@@H]2O[C@H](CO)[C@@H](O)[C@H](O)[C@H]2O)cc1Cc1ccc(CCCNC(=O)NC(CO)(CO)CO)cc1`: the IC50 in series [2] was 7 nM.

Regarding `Cc1cc(O)c([C@@H]2S[C@H](CO)[C@@H](O)[C@H](O)[C@H]2O)cc1Cc1ccc(CCCC(=O)NC(C)(C)C(N)=O)cc1`, the IC50 in [2] turned out to be 4 nM; in series [1] it was 47 nM.

In the case of `Cc1cc(O)c([C@@H]2O[C@H](CO)[C@@H](O)[C@H](O)[C@H]2O)cc1Cc1ccc(CCCC(=O)NC(C)(C)C(N)=O)cc1`, the IC50 was 7 nM in series [2] and 51 nM in series [1].

Consider `Cc1cc(O)c([C@@H]2S[C@H](CO)[C@@H](O)[C@H](O)[C@H]2O)cc1Cc1ccc(OC(C)C)cc1`, for which the IC50 is 3 nM in series [2] and 414 nM in [1].

Consider `Cc1cc(O)c([C@@H]2S[C@H](CO)[C@@H](O)[C@H](O)[C@H]2O)cc1Cc1ccc(CCCC(=O)NC(CO)(CO)CO)cc1`, for which the half-inhibitory concentration (IC50) worked out at 9 nM in series [2] and 35 nM in series [1].

For the molecule `Cc1cc(O)c([C@@H]2O[C@H](CO)[C@@H](O)[C@H](O)[C@H]2O)cc1Cc1ccc(CCNC(=O)NC(C)(C)CO)cc1`, in series [2], the 50% inhibitory concentration (IC50) was 4 nM.

Turning to `CCc1ccc(Cc2cc([C@@H]3S[C@H](CO)[C@@H](O)[C@H](O)[C@H]3O)c(O)cc2C)cc1`, the IC50 in [2] worked out at 2 nM.

These data come from ChEMBL document CHEMBL4265985, “Discovery of a potent, low-absorbable sodium-dependent glucose cotransporter 1 (SGLT1) inhibitor (TP0438836) for the treatment of type 2 diabetes” (Bioorg Med Chem Lett, 2018).
